Source: patent US20250214976A1, “GPR35 MODULATORS AND USES THEREOF” (Crossignal Therapeutics, Inc., priority 2022, published 2025)

These molecules were tested against T1, human GPR35 (Homo sapiens, UniProt Q9HC97) (assay: Luciferase Reporter Assay (YAP responsive element) in HEK293 cells stably transfected with human GPR35). Conditions: overnight incubation.
T1 construct: expressed in transfected cells; host or cells: HEK293
Assay type: cell-based
Protocol: HEK293 cells stably transfected with human GPR35 were maintained in Dulbecco's Modified Eagle Medium (DMEM) supplemented with 10% FBS and 300 μg/mL Zeocin and 200 μg/mL Hygromycin at 37° C., 10% CO2. On Day 1, cells were plated in poly-D-lysine coated 96-well tissue culture plate in regular growth medium (DMEM/10% FBS/300 μg/mL Zeocin/200 μg/mL Hygromycin. On the next day, luciferase reporter plasmid DNA with YAP responsive element was transfected into cells using lipofectamine 2000 (Invitrogen) following manufacture's protocol. After transfection for 6 hr., cells were treated with testing compounds in fasting DMEM medium (phenol red free, FBS free) at varying compound concentrations ranging from 10 μM to […] in a 3-fold serial diluted fashion. After an overnight incubation, the luciferase activities were measured with SteadyLite Plus Kit (PerkinElmer) according to manufacturer's protocol. IC50 was determined by fitting the dose-response data to a four-parameter logistic curve using GraphPad Prism.
The symbol “+” indicates IC50 is greater than […]. “++” indicates IC50>100 nM but ≤[…]. “+++” indicates IC50≤100 nM.

T1 sequence (Q9HC97 whole entry): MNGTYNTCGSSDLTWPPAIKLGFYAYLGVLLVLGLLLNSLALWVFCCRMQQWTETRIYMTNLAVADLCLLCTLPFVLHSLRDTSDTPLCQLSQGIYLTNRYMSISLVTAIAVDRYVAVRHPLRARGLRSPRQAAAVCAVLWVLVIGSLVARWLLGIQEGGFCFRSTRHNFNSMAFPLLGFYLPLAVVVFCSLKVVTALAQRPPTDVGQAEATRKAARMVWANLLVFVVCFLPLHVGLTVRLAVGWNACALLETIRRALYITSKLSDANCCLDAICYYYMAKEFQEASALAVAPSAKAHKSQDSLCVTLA

SMILES | IC50 [nM]
C[C@H](Oc1ccc(NC(=O)c2coc3cc(-c4nnn[nH]4)c(F)cc23)cc1)c1ccc(F)cc1Cl (single isomer, unassigned) [Compound 1-25] | > 1000
C[C@@H](Oc1ccc(NC(=O)c2coc3cc(-c4nnn[nH]4)c(F)cc23)cc1)c1ccc(F)cc1Cl (single isomer, unassigned) [Compound 1-26] | > 1000
C[C@H](Oc1ccc(NC(=O)c2coc3cc(-c4nnn[nH]4)c(F)cc23)cc1F)C(F)(F)F (single isomer, unassigned) [Compound 1-30] | ≤ 100
C[C@@H](Oc1ccc(NC(=O)c2coc3cc(-c4nnn[nH]4)c(F)cc23)cc1F)C(F)(F)F (single isomer, unassigned) [Compound 1-31] | 100 to 1000
O=C(Nc1ccc(O[C@H]2CCC(F)(F)C2)c(F)c1)c1coc2cc(-c3nnn[nH]3)c(F)cc12 (single isomer, unassigned) [Compound 1-36] | ≤ 100
O=C(Nc1ccc(O[C@@H]2CCC(F)(F)C2)c(F)c1)c1coc2cc(-c3nnn[nH]3)c(F)cc12 (single isomer, unassigned) [Compound 1-37] | ≤ 100
O=C(Nc1ccc(OC2CCCC2)c(F)c1)c1coc2cc(-c3nnn[nH]3)ccc12 [Compound 1-1, N-(4-(cyclopentyloxy)-3-fluorophenyl)-6-(1H-tetrazol-5-yl)benzofuran-3-carboxamide] | ≤ 100
O=C(Nc1ccc(OC2CCC2)c(F)c1)c1coc2cc(-c3nnn[nH]3)ccc12 [Compound 1-2, N-(4-cyclobutoxy-3-fluorophenyl)-6-(1H-tetrazol-5-yl)benzofuran-3-carboxamide] | ≤ 100
O=C(O)c1ccc2c(C(=O)Nc3ccc(OC4CCC4)c(F)c3)coc2c1 [Compound 1-3, 3-((4-cyclobutoxy-3-fluorophenyl)carbamoyl)benzofuran-6-carboxylic acid] | > 1000
O=C(Nc1ccc(OC2CCC2)c(F)c1)c1coc2cc(OCc3nnn[nH]3)ccc12 [Compound 1-4, 6-((1H-tetrazol-5-yl)methoxy)-N-(4-cyclobutoxy-3-fluorophenyl)benzofuran-3-carboxamide] | > 1000
O=C(Nc1ccc(OCc2ccc(F)cc2Cl)c(F)c1)c1coc2cc(OCc3nnn[nH]3)ccc12 [Compound 1-5, 6-((1H-tetrazol-5-yl)methoxy)-N-(4-((2-chloro-4-fluorobenzyl)oxy)-3-fluorophenyl)benzofuran-3-carboxamide] | > 1000
O=C(Nc1ccc(OCc2ccc(F)cc2Cl)c(F)c1)c1coc2cc(-c3nnn[nH]3)ccc12 [Compound 1-6, N-(4-((2-chloro-4-fluorobenzyl)oxy)-3-fluorophenyl)-6-(1H-tetrazol-5-yl)benzofuran-3-carboxamide] | 100 to 1000
O=C(Nc1ccc(OC2CCCC2)c(F)c1)c1coc2c(-c3nnn[nH]3)cccc12 [Compound 1-7, N-(4-(cyclopentyloxy)-3-fluorophenyl)-7-(1H-tetrazol-5-yl)benzofuran-3-carboxamide] | > 1000
O=C(Nc1ccc(OCc2ccc(F)cc2Cl)cc1)c1coc2cc(OCc3nnn[nH]3)ccc12 [Compound 1-8, 6-((1H-tetrazol-5-yl)methoxy)-N-(4-((2-chloro-4-fluorobenzyl)oxy)phenyl)benzofuran-3-carboxamide] | > 1000
O=C(Nc1ccc(OC2CCCC2)c(F)c1F)c1coc2cc(-c3nnn[nH]3)ccc12 [Compound 1-9, N-(4-(cyclopentyloxy)-2,3-difluorophenyl)-6-(1H-tetrazol-5-yl)benzofuran-3-carboxamide] | > 1000
O=C(Nc1cc(F)c(OC2CCCC2)cc1F)c1coc2cc(-c3nnn[nH]3)ccc12 [Compound 1-10, N-(4-(cyclopentyloxy)-2,5-difluorophenyl)-6-(1H-tetrazol-5-yl)benzofuran-3-carboxamide] | ≤ 100
O=C(Nc1ccc(OCc2ccc(F)cc2Cl)c(F)c1)c1coc2c(-c3nnn[nH]3)cccc12 [Compound 1-11, N-(4-((2-chloro-4-fluorobenzyl)oxy)-3-fluorophenyl)-7-(1H-tetrazol-5-yl)benzofuran-3-carboxamide] | > 1000
O=C(Nc1ccc(F)c(F)c1OC1CCCC1)c1coc2cc(-c3nnn[nH]3)ccc12 [Compound 1-12, N-(2-(cyclopentyloxy)-3,4-difluorophenyl)-6-(1H-tetrazol-5-yl)benzofuran-3-carboxamide] | > 1000
O=C(Nc1ccc(OCc2ccc(F)cc2Cl)cc1)c1coc2cc(-c3nnn[nH]3)ccc12 [Compound 1-13, N-(4-((2-chloro-4-fluorobenzyl)oxy)phenyl)-6-(1H-tetrazol-5-yl)benzofuran-3-carboxamide] | ≤ 100
O=C(Nc1ccc(C2CCCC2)c(F)c1)c1coc2cc(-c3nnn[nH]3)ccc12 [Compound 1-14, N-(4-cyclopentyl-3-fluorophenyl)-6-(1H-tetrazol-5-yl)benzofuran-3-carboxamide] | ≤ 100
CC1(Oc2ccc(NC(=O)c3coc4cc(-c5nnn[nH]5)ccc34)cc2F)CC1 [Compound 1-15, N-(3-fluoro-4-(1-methylcyclopropoxy)phenyl)-6-(1H-tetrazol-5-yl)benzofuran-3-carboxamide] | ≤ 100
CC1(Oc2ccc(NC(=O)c3coc4cc(-c5nnn[nH]5)c(F)cc34)cc2F)CC1 [Compound 1-16, 5-fluoro-N-(3-fluoro-4-(1-methylcyclopropoxy)phenyl)-6-(1H-tetrazol-5-yl)benzofuran-3-carboxamide] | ≤ 100
O=C(Nc1ccc(C2CCCC2)c(F)c1)c1coc2cc(-c3nnn[nH]3)c(F)cc12 [Compound 1-17, N-(4-cyclopentyl-3-fluorophenyl)-5-fluoro-6-(1H-tetrazol-5-yl)benzofuran-3-carboxamide] | ≤ 100
O=C(Nc1ccc(OCc2ccc(F)cc2Cl)cc1)c1coc2cc(-c3nnn[nH]3)c(F)cc12 [Compound 1-18, N-(4-((2-chloro-4-fluorobenzyl)oxy)phenyl)-5-fluoro-6-(1H-tetrazol-5-yl)benzofuran-3-carboxamide] | ≤ 100
O=C(Nc1ccc(OCc2ccc(Cl)cc2Cl)cc1)c1coc2cc(-c3nnn[nH]3)c(F)cc12 [Compound 1-19, N-(4-((2,4-dichlorobenzyl)oxy)phenyl)-5-fluoro-6-(1H-tetrazol-5-yl)benzofuran-3-carboxamide] | 100 to 1000
O=C(Nc1ccc(OC2CCCC2)c(F)c1)c1coc2cc(-c3nnn[nH]3)c(F)cc12 [Compound 1-20, N-(4-(cyclopentyloxy)-3-fluorophenyl)-5-fluoro-6-(1H-tetrazol-5-yl)benzofuran-3-carboxamide] | ≤ 100
O=C(Nc1ccc(O[C@H]2CCOC2)c(F)c1)c1coc2cc(-c3nnn[nH]3)c(F)cc12 [Compound 1-21, (S)-5-fluoro-N-(3-fluoro-4-((tetrahydrofuran-3-yl)oxy)phenyl)-6-(1H-tetrazol-5-yl)benzofuran-3-carboxamide] | 100 to 1000
O=C(Nc1ccc(O[C@@H]2CCOC2)c(F)c1)c1coc2cc(-c3nnn[nH]3)c(F)cc12 [Compound 1-22, (R)-5-fluoro-N-(3-fluoro-4-((tetrahydrofuran-3-yl)oxy)phenyl)-6-(1H-tetrazol-5-yl)benzofuran-3-carboxamide] | > 1000
NC(=O)c1cc2occ(C(=O)Nc3ccc(OCc4ccc(F)cc4Cl)cc3)c2cc1F [Compound 1-23, N3-(4-((2-chloro-4-fluorobenzyl)oxy)phenyl)-5-fluorobenzofuran-3,6-dicarboxamide] | > 1000
